# In the supplement of paper PMC13380429:
# Columns and labels:
# Conditions in all cases: 72 h
# [1] = system: HepG2; test: relative viability EC50 (midpoint between 100% and the lowest measured viability); higher = less toxic
# [2] = system: Calu-3; test: as above
# [3] = system: Vero E6; test: as above
# [4] = system: U2OS; test: as above
# [5] = system: Caco-2; test: as above
# [6] = system: HepG2; test: cell viability relative to DMSO; higher = less toxic
# [7] = system: Calu-3; test: as above
# [8] = system: Vero E6; test: as above
# [9] = system: U2OS; test: as above
# [10] = system: Caco-2; test: as above
# [11] = system: HepG2; test: drug sensitivity score (DSS) for viability; higher = more toxic; extreme values may be limits of the assay
# [12] = system: Calu-3; test: as above
# [13] = system: Vero E6; test: as above
# [14] = system: U2OS; test: as above
# [15] = system: Caco-2; test: as above
Compound,relative viability EC50 [1],relative viability EC50 [2],relative viability EC50 [3],relative viability EC50 [4],relative viability EC50 [5],cell viability ([6]; 1 nM),cell viability ([6]; 10 nM),cell viability ([6]; 100 nM),cell viability ([6]; 1000 nM),cell viability ([6]; 10000 nM),cell viability ([7]; 1 nM),cell viability ([7]; 10 nM),cell viability ([7]; 100 nM),cell viability ([7]; 1000 nM),cell viability ([7]; 10000 nM),cell viability ([8]; 1 nM),cell viability ([8]; 10 nM),cell viability ([8]; 100 nM),cell viability ([8]; 1000 nM),cell viability ([8]; 10000 nM),cell viability ([9]; 1 nM),cell viability ([9]; 10 nM),cell viability ([9]; 100 nM),cell viability ([9]; 1000 nM),cell viability ([9]; 10000 nM),cell viability ([10]; 1 nM),cell viability ([10]; 10 nM),cell viability ([10]; 100 nM),cell viability ([10]; 1000 nM),cell viability ([10]; 10000 nM),drug sensitivity score [11],drug sensitivity score [12],drug sensitivity score [13],drug sensitivity score [14],drug sensitivity score [15]
CNC(=O)[C@@H](Cc1ccccc1)N(C)C(=O)[C@@H](Cc1ccc2ccccc2c1)N(C)C(=O)/C=C/CC(C)(C)N [tabimorelin],> 10 µM,> 10 µM,> 10 µM,> 10 µM,> 10 µM,105%,96.5%,106%,87.3%,96.5%,96.4%,100%,100%,104%,88.2%,95.8%,102%,101%,102%,99.1%,99.9%,101%,96.8%,103%,98.3%,99.8%,104%,103%,95.4%,92.3%,0.6,0,0,0,0
O=C(O[C@H]1CN2CCC1CC2)N(Cc1cc(F)c(F)c(F)c1)c1cccc(F)c1 [tarafenacin],> 10 µM,> 10 µM,> 10 µM,> 10 µM,> 10 µM,115%,106%,108%,96.5%,99.3%,96.4%,106%,106%,113%,96.2%,99.7%,99.6%,107%,98.7%,90.2%,95.7%,102%,100%,103%,91.3%,102%,96.5%,91.3%,104%,95.7%,0,0,0,0,0
CC[C@H]1OC(=O)[C@H](C)C(=O)[C@H](C)[C@@H](O[C@@H]2O[C@H](C)C[C@H](N(C)C)[C@H]2O)[C@](C)(OC)C[C@@H](C)C(=O)[C@H](C)[C@H]2N(CCCCn3cnc(-c4cccnc4)c3)C(=O)O[C@]12C [telithromycin],> 10 µM,> 10 µM,> 10 µM,> 10 µM,> 10 µM,105%,96.6%,103%,101%,109%,107%,101%,89%,99.8%,100%,98.1%,98.9%,96.1%,96.1%,106%,88%,95.4%,95%,95.2%,97%,100%,99.5%,100%,104%,89%,0,0,0,0,0
CC(C)OC(=O)OCOP(=O)(CO[C@H](C)Cn1cnc2c(N)ncnc21)OCOC(=O)OC(C)C [tenofovir-disoproxil],1.35 µM,> 10 µM,> 10 µM,> 10 µM,> 10 µM,102%,101%,109%,82.2%,44.6%,97.1%,104%,97.1%,95.4%,80.8%,102%,94.9%,96%,94.3%,96.7%,96.2%,101%,92.6%,103%,95.8%,96.3%,93%,93.8%,97.2%,89%,5.6,1,0,0,0
CN1C(C(=O)Nc2ccccn2)=C(O)c2sccc2S1(=O)=O [tenoxicam],> 10 µM,> 10 µM,> 10 µM,> 10 µM,> 10 µM,94.9%,96%,96.5%,88.5%,101%,99.3%,102%,90.7%,106%,98.2%,98.5%,96.2%,103%,98.7%,99.8%,93.3%,94.4%,93.1%,97%,93.1%,98%,102%,96.2%,98.6%,92.6%,0,0,0,0,0
Cc1ncc(C[n+]2csc(CCO)c2C)c(N)n1 [thiamine],> 10 µM,> 10 µM,> 10 µM,> 10 µM,> 10 µM,96%,103%,96.2%,105%,88.2%,104%,91.6%,99.6%,104%,105%,95.7%,108%,98.4%,102%,99.7%,104%,104%,102%,105%,99.1%,107%,103%,100%,96.9%,102%,0,0,0,0,0
O=c1n(CCCN2CCN(c3cccc(Cl)c3)CC2)nc2ccccn12 [trazodone],> 10 µM,> 10 µM,> 10 µM,> 10 µM,> 10 µM,95.8%,99%,94.1%,108%,91%,105%,92.4%,95.1%,79.7%,99.3%,98.8%,101%,95.6%,103%,101%,102%,104%,98.5%,97.2%,98.3%,99.5%,98.2%,97.5%,89.6%,96.4%,0,0,0,0,0
O=C(Nc1ccc(Cl)cc1)Nc1ccc(Cl)c(Cl)c1 [triclocarban],> 10 µM,> 10 µM,> 10 µM,> 10 µM,> 10 µM,90%,88.1%,99.6%,98.1%,97.1%,97.2%,93.3%,97.3%,88.8%,100%,101%,89.4%,103%,86.8%,95.4%,92.6%,96.5%,94.2%,102%,97.2%,82.8%,59.4%,94.2%,104%,87.9%,0,0,0,0,0
COc1cc(C(=O)NCc2ccc(OCCN(C)C)cc2)cc(OC)c1OC [trimethobenzamide],> 10 µM,> 10 µM,> 10 µM,> 10 µM,> 10 µM,98.2%,106%,99.5%,101%,107%,103%,84.6%,98.2%,93.6%,101%,96.1%,99.7%,93.2%,99.1%,99.9%,97.6%,93.8%,102%,97.4%,100%,95.9%,94.3%,99.2%,87.8%,99.7%,0,0,0,0,0
O=C(O)c1ccccc1NCCc1ccccc1 [tromaril],> 10 µM,> 10 µM,> 10 µM,> 10 µM,> 10 µM,102%,101%,93.8%,104%,95%,106%,94.5%,99.3%,90.1%,106%,97.5%,99.5%,99%,102%,95.5%,102%,102%,101%,96.4%,101%,97%,97%,96.9%,96.2%,102%,0,0,0,0,0
N#C/C(=C\c1ccc(O)c(O)c1)C(N)=O [tyrphostin-AG-99],> 10 µM,> 10 µM,> 10 µM,> 10 µM,> 10 µM,96.3%,112%,104%,110%,102%,102%,97.2%,103%,111%,112%,94%,98.6%,98.3%,93.4%,107%,100%,94.7%,102%,105%,100%,96.9%,92.5%,96.4%,92.2%,103%,0,0,0,0,0
CCOC(N)=O [urethane],> 10 µM,> 10 µM,> 10 µM,> 10 µM,> 10 µM,95.8%,106%,85%,97.4%,105%,105%,103%,90.5%,107%,112%,98.9%,96.7%,98%,100%,104%,101%,102%,97.6%,104%,97.9%,93.5%,97.3%,98.4%,95.5%,102%,0,0,0,0,0
CC(C)[C@H](N)C(=O)OCCOCn1cnc2c(=O)nc(N)[nH]c21 [valaciclovir],> 10 µM,> 10 µM,> 10 µM,> 10 µM,> 10 µM,103%,92.5%,104%,99.5%,101%,103%,98.8%,88.4%,111%,90.3%,90.1%,92%,86.5%,86.1%,105%,94%,101%,96%,105%,110%,103%,96%,104%,99.4%,104%,0,0,0,0,0
COc1ccc(CCN(C)CCCN2CCc3cc(OC)c(OC)cc3CC2=O)cc1OC [zatebradine],> 10 µM,> 10 µM,> 10 µM,> 10 µM,> 10 µM,105%,99.4%,100%,103%,97.7%,97%,100%,92.9%,105%,94.2%,94.1%,98.4%,93.4%,96%,88%,101%,94.5%,99.1%,97.6%,97.6%,97.2%,90.5%,92.9%,99.6%,94.4%,0,0,0,0,0
